Where “and” joins values, the source holds several entries; their conditions need not be identical. Identical values can stand only once. ± gives the uncertainty stated by the source.
Columns and labels:
[1] = xn = mol fraction of the nth substance listed

C=C(C)C(=O)OC
viscosity
Settings	298.15 K	303.15 K	308.15 K	313.15 K
101 kPa	0.5625 ± 0.012 mPa·s	0.5142 ± 0.0058 mPa·s and 0.524 ± 0.011 mPa·s	0.4932 ± 0.01 mPa·s	0.4684 ± 0.01 mPa·s
101.3 kPa	0.584 ± 0.004 mPa·s	–	0.492 ± 0.004 mPa·s	–

ClCCCCCCCl
101 kPa
Settings	viscosity
308.15 K	1.616 ± 0.034 mPa·s
313.15 K	1.533 ± 0.033 mPa·s and 1.534 ± 0.033 mPa·s
318.15 K	1.387 ± 0.03 mPa·s

FC1CC(F)(F)C(F)(F)C1(F)F (stereo not given)
101 kPa
Settings	viscosity [mPa·s]
298.15 K	1.65 ± 0.07
313.15 K	1.28 ± 0.05
323.15 K	1.08 ± 0.04

CCCC[P+](C)(CCCC)CCCC.COS(=O)(=O)[O-]
viscosity
Settings	293.15 K	298.15 K	303.15 K	308.15 K	313.15 K	318.15 K	323.15 K
100 kPa	729.1 ± 300 mPa·s and 729.1 ± 68 mPa·s	521.3 ± 210 mPa·s and 521.3 ± 43 mPa·s	381.4 ± 150 mPa·s and 381.4 ± 28 mPa·s	286.1 ± 120 mPa·s and 286.1 ± 18 mPa·s	217 ± 88 mPa·s and 217 ± 12 mPa·s	169.1 ± 68 mPa·s and 169.1 ± 8.3 mPa·s	133.4 ± 54 mPa·s and 133.4 ± 5.9 mPa·s
101 kPa	729.1 ± 300 mPa·s	521.3 ± 210 mPa·s	381.4 ± 150 mPa·s	286.1 ± 120 mPa·s	217 ± 88 mPa·s	169.1 ± 68 mPa·s	133.4 ± 54 mPa·s

CC1(c2ccccc2)OC1C#N (stereo not given)
101 kPa
Settings	viscosity [mPa·s]
293.15 K	11.77 ± 0.3
298.15 K	9.155 ± 0.24
303.15 K	7.386 ± 0.19
313.15 K	5.17 ± 0.13
323.15 K	3.522 ± 0.092

CCOC(C)OCC
101 kPa
Settings	viscosity [mPa·s]
303.1 K	0.404 ± 0.017
313.1 K	0.364 ± 0.015

C[N+](C)(C)CCC[N+]1(C)CCCCC1.N#C[N-]C#N.N#C[N-]C#N
100 kPa
Settings	viscosity
293.15 K	4503 ± 560 mPa·s and 4503 ± 770 mPa·s
298.15 K	2819 ± 340 mPa·s
303.15 K	1837 ± 210 mPa·s and 1837 ± 270 mPa·s
308.15 K	1224 ± 140 mPa·s
313.15 K	856.1 ± 95 mPa·s and 856.1 ± 110 mPa·s
318.15 K	618.5 ± 67 mPa·s
323.15 K	460.1 ± 49 mPa·s and 460.1 ± 56 mPa·s

CCCC[n+]1ccn(C)c1.O=C([O-])C(F)(F)F
101 kPa
Settings	viscosity [mPa·s]
298.15 K	52.9 ± 2
303.15 K	58 ± 2.5
313.15 K	37.83 ± 1.6
323.15 K	26.11 ± 1.1

Cc1ccc(NC(=O)NC(C)CCCC(C)C)cc1NC(=O)NC(C)CCCC(C)C (stereo not given) + CCCCC
Settings	viscosity [mPa·s]
[1], 293.15 K, 100 kPa, x1 = 0.0002	461 ± 43

[I-].[Na+] + OCCO
[1], 101 kPa, x1 = 0.2
Settings	viscosity [mPa·s]
303 K	47.72 ± 0.72
313 K	29.93 ± 0.42
323 K	20.08 ± 0.27

CCCCOP(=O)(O)OCCCC + CCCN
[1], 297 K, 101 kPa
Settings	viscosity [mPa·s]
x2 = 0.15	60 ± 10
x2 = 0.3	100 ± 30
x2 = 0.48	1370 ± 270
x2 = 0.5	1700 ± 330
x2 = 0.66	170 ± 40

C=C(C)C(=O)OC + CCCCO
viscosity [mPa·s], [1], 101.3 kPa
Settings	298.15 K	308.15 K
x1 = 0.05	2.22 ± 0.014	1.726 ± 0.011
x1 = 0.1489	1.7 ± 0.011	1.355 ± 0.009
x1 = 0.2479	1.341 ± 0.009	1.092 ± 0.007
x1 = 0.3487	1.086 ± 0.007	0.9 ± 0.006
x1 = 0.4499	0.906 ± 0.006	0.761 ± 0.005
x1 = 0.5024	0.835 ± 0.006	0.705 ± 0.005
x1 = 0.5479	0.783 ± 0.005	0.664 ± 0.005
x1 = 0.6441	0.699 ± 0.005	0.596 ± 0.004
x1 = 0.7437	0.639 ± 0.005	0.546 ± 0.004
x1 = 0.8469	0.602 ± 0.004	0.513 ± 0.004
x1 = 0.9453	0.585 ± 0.004	0.496 ± 0.004

CCCCCCCCCCCC(=O)[O-].[Na+] + CCCCCCCCCC(=O)O
[1], 101 kPa, x1 = 0.2
Settings	viscosity [mPa·s]
293.15 K	76.59 ± 1.1
298.15 K	60.48 ± 0.83
303.15 K	48.43 ± 0.67
308.15 K	39.29 ± 0.54
313.15 K	32.27 ± 0.45
318.15 K	26.79 ± 0.37
323.15 K	22.48 ± 0.31

C=C(C)C(=O)OC + CCCCOCCCC
viscosity [mPa·s], [1], 101.3 kPa
Settings	298.15 K	308.15 K
x1 = 0.0446	0.633 ± 0.005	0.581 ± 0.004
x1 = 0.1479	0.616 ± 0.005	0.561 ± 0.004
x1 = 0.2442	0.603 ± 0.004	0.546 ± 0.004
x1 = 0.3388	0.593 ± 0.004	0.532 ± 0.004
x1 = 0.4495	0.584 ± 0.004	0.519 ± 0.004
x1 = 0.4924	0.581 ± 0.004	0.515 ± 0.004
x1 = 0.5489	0.579 ± 0.004	0.51 ± 0.004
x1 = 0.6504	0.576 ± 0.004	0.502 ± 0.004
x1 = 0.7489	0.575 ± 0.004	0.496 ± 0.004
x1 = 0.8501	0.577 ± 0.004	0.492 ± 0.004
x1 = 0.9428	0.581 ± 0.004	0.49 ± 0.004

C=C(C)C(=O)OC + C1CCCCC1
[1], 303.15 K, 101 kPa
Settings	viscosity [mPa·s]
x1 = 0.1178	0.6811 ± 0.0067
x1 = 0.2021	0.6254 ± 0.0063
x1 = 0.3973	0.5474 ± 0.0059
x1 = 0.4984	0.5261 ± 0.0058
x1 = 0.5963	0.5188 ± 0.0058
x1 = 0.804	0.5141 ± 0.0058
x1 = 0.9019	0.5099 ± 0.0057

O=C(O)CCCC(=O)O + C[N+](C)(C)CCO.[Cl-]
[1], 100 kPa, x2 = 0.5
Settings	viscosity [mPa·s]
293.15 K	2968 ± 190
298.15 K	2015 ± 120
303.15 K	1408 ± 81
308.15 K	1007 ± 55
313.15 K	735.8 ± 39
318.15 K	547.5 ± 28
323.15 K	414.6 ± 20

ClCCCCCCCl + c1ccccc1
viscosity [mPa·s], [1], 101 kPa
Settings	x1 = 0.09315	x1 = 0.1846	x1 = 0.2859	x1 = 0.3958	x1 = 0.5003	x1 = 0.5842	x1 = 0.6836	x1 = 0.7842	x1 = 0.8829
308.15 K	0.565 ± 0.012	0.613 ± 0.013	0.668 ± 0.014	0.733 ± 0.015	0.824 ± 0.017	0.92 ± 0.019	1.066 ± 0.022	1.217 ± 0.026	1.393 ± 0.03
313.15 K	0.546 ± 0.011	0.591 ± 0.012	0.645 ± 0.014	0.704 ± 0.015	0.789 ± 0.017	0.888 ± 0.019	1.014 ± 0.021	1.164 ± 0.025	1.324 ± 0.028
318.15 K	0.505 ± 0.011	0.548 ± 0.012	0.594 ± 0.012	0.642 ± 0.014	0.72 ± 0.015	0.809 ± 0.017	0.929 ± 0.02	1.056 ± 0.022	1.197 ± 0.025

CC(N)(CO)CO + O
viscosity [mPa·s], [1], 101.3 kPa
Settings	303.15 K	313.15 K	323.15 K
x1 = 0.019	1.127 ± 0.009	0.9018 ± 0.007	0.7417 ± 0.0059
x1 = 0.041	1.683 ± 0.013	1.307 ± 0.01	1.045 ± 0.008
x1 = 0.068	2.681 ± 0.021	1.999 ± 0.016	1.567 ± 0.012

C[C@H](N)C(=O)N[C@@H](CCC(N)=O)C(=O)O + O
Settings	viscosity [mPa·s]
[1], 298.15 K, 101 kPa, x1 = 0.0008999	0.919 ± 0.006

Reference: the CheMixHub viscosity set
